IC50 data for 20 compounds are collected here from US20240190890A1, “MK2 INHIBITORS AND USES THEREOF” (Bristol-Myers Squibb Company, priority 2022, published 2024).

The assay has as its target p38a activated, mitogen-activated protein kinase-activated protein kinase 2 (MAPKAP-K2 or MK2) enzyme (Homo sapiens (Human), UniProt P49137). Nature of the assay: MK2 Omnia continuous-read kinase assay for compound potency. Type of assay: biochemical. The note with it: [MK-2]=0.4 nM, [ATP]=10 μM, [ST3-Sox]=10 μM; room temperature. A digest of the protocol: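 p38a-activated MK2 (0.4 nM) with 10 μM ATP (apparent Km) and 10 μM S/T3-Sox peptide in Tris pH 7.5 buffer with MgCl2, EGTA and DTT. Fluorescence (ex360/em485) read continuously for 120 min at room temperature. IC50 from initial linear slopes; apparent kinact/KI from kobs of exponential progress-curve fits.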

What is called IC50 is the concentration at which inhibition is half-maximal.

Sequence of p38a activated, mitogen-activated protein kinase-activated protein kinase 2 (MAPKAP-K2 or MK2) enzyme (P49137 whole entry): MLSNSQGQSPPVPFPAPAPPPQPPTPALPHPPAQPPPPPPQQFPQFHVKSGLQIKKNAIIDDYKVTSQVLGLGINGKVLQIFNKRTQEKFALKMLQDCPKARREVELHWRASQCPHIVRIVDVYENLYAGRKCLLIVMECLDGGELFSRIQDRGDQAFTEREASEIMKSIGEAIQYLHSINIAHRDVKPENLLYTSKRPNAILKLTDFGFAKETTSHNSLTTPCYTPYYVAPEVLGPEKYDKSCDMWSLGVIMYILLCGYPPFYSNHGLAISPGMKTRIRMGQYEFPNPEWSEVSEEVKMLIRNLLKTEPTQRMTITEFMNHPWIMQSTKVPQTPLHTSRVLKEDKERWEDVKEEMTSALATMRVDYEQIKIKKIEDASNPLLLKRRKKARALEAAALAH

`Cc1cnc(CC#N)cc1-c1ccc2c(ccc3sc4c(c32)NC[C@@H](C)NC4=O)n1` [Example I-267, (R)-2-(5-methyl-4-(10-methyl-8-oxo-9,10,11,12-tetrahydro-8H-[1,4]diazepino[5′,6′:4,5]thieno[3,2-f]quinolin-3-yl)pyridin-2-yl)acetonitrile]: the IC50 came to 1000 nM.

As to `C=Cc1cc(-c2ccc3c(ccc4sc5c(c43)NC[C@@H](C)NC5=O)n2)nc(N2CCN(C)CC2)n1` [Example I-19, (R)-10-methyl-3-(2-(4-methylpiperazin-1-yl)-6-vinylpyrimidin-4-yl)-9,10,11,12-tetrahydro-8H-[1,4]diazepino[5′,6′:4,5]thieno[3,2-f]quinolin-8-one], the half-inhibitory concentration (IC50) was found to be 4 nM.

In the case of `C=Cc1nc(CO)cc(-c2ccc3c(ccc4sc5c(c43)NC[C@@H](C)NC5=O)n2)n1` [Example I-85, (R)-3-(6-(hydroxymethyl)-2-vinylpyrimidin-4-yl)-10-methyl-9,10,11,12-tetrahydro-8H-[1,4]diazepino[5′,6′:4,5]thieno[3,2-f]quinolin-8-one], the IC50 was found to be 11 nM.

With `C#Cc1ncc(F)c(-c2ccc3c(ccc4sc5c(c43)NC[C@@H](C)NC5=O)n2)n1` [Example I-1, (R)-3-(2-ethynyl-5-fluoropyrimidin-4-yl)-10-methyl-9,10,11,12-tetrahydro-8H-[1,4]diazepino[5′,6′:4,5]thieno[3,2-f]quinolin-8-one], the IC50 is 5 nM.

Turning to `C#Cc1cc(-c2ccc3c(ccc4sc5c(c43)NC[C@@H](C)NC5=O)n2)cc(CN2CCOCC2)n1` [Example I-169, (R)-3-(2-ethynyl-6-(morpholinomethyl)pyridin-4-yl)-10-methyl-9,10,11,12-tetrahydro-8H-[1,4]diazepino[5′,6′:4,5]thieno[3,2-f]quinolin-8-one], the IC50 stood at 39 nM.

In the case of `C=Cc1cc(-c2ccc3c(ccc4sc5c(c43)NC[C@@H](C)NC5=O)n2)cc(N2CCN(CC)CC2)n1` [Example I-173, (R)-3-(2-(4-ethylpiperazin-1-yl)-6-vinylpyridin-4-yl)-10-methyl-9,10,11,12-tetrahydro-8H-[1,4]diazepino[5′,6′:4,5]thieno[3,2-f]quinolin-8-one], the IC50 was 35 nM.

Regarding `C=Cc1ncc(COCC)c(-c2ccc3c(ccc4sc5c(c43)NC[C@@H](C)NC5=O)n2)n1` [Example I-5, (R)-3-(5-(ethoxymethyl)-2-vinylpyrimidin-4-yl)-10-methyl-9,10,11,12-tetrahydro-8H-[1,4]diazepino[5′,6′:4,5]thieno[3,2-f]quinolin-8-one], the 50% inhibitory concentration (IC50) is 7 nM.

With `C=Cc1ncc(CO)c(-c2ccc3c(ccc4sc5c(c43)NC[C@@H](C)NC5=O)n2)n1` [Example I-77, (R)-3-(5-(hydroxymethyl)-2-vinylpyrimidin-4-yl)-10-methyl-9,10,11,12-tetrahydro-8H-[1,4]diazepino[5′,6′:4,5]thieno[3,2-f]quinolin-8-one], the IC50 is 13 nM.

Consider `C#Cc1cccc(-c2ccc3c(ccc4sc5c(c43)NC[C@@H](C)NC5=O)n2)n1` [Example I-56, (R)-3-(6-ethynylpyridin-2-yl)-10-methyl-9,10,11,12-tetrahydro-8H-[1,4]diazepino[5′,6′:4,5]thieno[3,2-f]quinolin-8-one], for which the IC50 is 194 nM.

Regarding `C#Cc1cc(-c2ccc3c(ccc4sc5c(c43)NC[C@@H](C)NC5=O)n2)cc(C2CCN(C)CC2)n1` [Example I-107, (R)-3-(2-ethynyl-6-(1-methylpiperidin-4-yl)pyridin-4-yl)-10-methyl-9,10,11,12-tetrahydro-8H-[1,4]diazepino[5′,6′:4,5]thieno[3,2-f]quinolin-8-one], the IC50 is 22 nM.

In the case of `C[C@@H]1CNc2c(sc3ccc4nc(-c5cc(Cl)nc(COC6CCOCC6)n5)ccc4c23)C(=O)N1` [Example I-23, (R)-3-(6-chloro-2-(((tetrahydro-2H-pyran-4-yl)oxy)methyl)pyrimidin-4-yl)-10-methyl-9,10,11,12-tetrahydro-8H-[1,4]diazepino[5′,6′:4,5]thieno[3,2-f]quinolin-8-one], the IC50 was 487 nM.

Consider `C=Cc1cc(-c2ccc3c(ccc4sc5c(c43)NC[C@@H](C)NC5=O)n2)cc(CN2CCN(C)CC2)n1` [Example I-125, (R)-10-methyl-3-(2-((4-methylpiperazin-1-yl)methyl)-6-vinylpyridin-4-yl)-9,10,11,12-tetrahydro-8H-[1,4]diazepino[5′,6′:4,5]thieno[3,2-f]quinolin-8-one], for which the IC50 was 2 nM.

Regarding `C/C=C\c1ncc(F)c(-c2ccc3c(ccc4sc5c(c43)NC[C@@H](C)NC5=O)n2)n1` [Example I-46, (R,Z)-3-(5-fluoro-2-(prop-1-en-1-yl)pyrimidin-4-yl)-10-methyl-9,10,11,12-tetrahydro-8H-[1,4]diazepino[5′,6′:4,5]thieno[3,2-f]quinolin-8-one], the IC50 was 765 nM.

On to `C=Cc1cc(-c2ccc3c(ccc4sc5c(c43)NCC(C)NC5=O)n2)cc(N2CC3CC2CO3)n1` (racemic) [Example I-216, rac-(10R)-3-(2-(2-oxa-5-azabicyclo[2.2.1]heptan-5-yl)-6-vinylpyridin-4-yl)-10-methyl-9,10,11,12-tetrahydro-8H-[1,4]diazepino[5′,6′:4,5]thieno[3,2-f]quinolin-8-one], for which the IC50 is 11 nM.

For the compound `C=Cc1cc(-c2ccc3c(ccc4sc5c(c43)NCC(C)NC5=O)n2)cc(N2CCC3(CCC(=O)O3)CC2)n1` (racemic) [Example I-215, rac-(R)-8-(4-(10-methyl-8-oxo-9,10,11,12-tetrahydro-8H-[1,4]diazepino[5′,6′:4,5]thieno[3,2-f]quinolin-3-yl)-6-vinylpyridin-2-yl)-1-oxa-8-azaspiro[4.5]decan-2-one], the IC50 was 21 nM.

As to `C#Cc1cc(-c2ccc3c(ccc4sc5c(c43)NC[C@@H](C)NC5=O)n2)c(C)nn1` [Example I-170, (R)-3-(6-ethynyl-3-methylpyridazin-4-yl)-10-methyl-9,10,11,12-tetrahydro-8H-[1,4]diazepino[5′,6′:4,5]thieno[3,2-f]quinolin-8-one], the IC50 stood at 18 nM.

On to `C=Cc1cnn(C)c1-c1ccc2c(ccc3sc4c(c32)NC[C@@H](C)NC4=O)n1` [Example I-146, (R)-10-methyl-3-(1-methyl-4-vinyl-1H-pyrazol-5-yl)-9,10,11,12-tetrahydro-8H-[1,4]diazepino[5′,6′:4,5]thieno[3,2-f]quinolin-8-one], for which the IC50 amounted to 499 nM.

Consider `C=Cc1cc(-c2ccc3c(ccc4sc5c(c43)NC[C@@H](C)NC5=O)n2)c(F)c(CN2CCOCC2)n1` [Example I-198, (R)-3-(3-fluoro-2-(morpholinomethyl)-6-vinylpyridin-4-yl)-10-methyl-9,10,11,12-tetrahydro-8H-[1,4]diazepino[5′,6′:4,5]thieno[3,2-f]quinolin-8-one], for which the IC50 worked out at 106 nM.

Take `C#Cc1cc(-c2ccc3c(ccc4sc5c(c43)NC[C@@H](C)NC5=O)n2)c(C(F)F)cn1` [Example I-92, (R)-3-(5-(difluoromethyl)-2-ethynylpyridin-4-yl)-10-methyl-9,10,11,12-tetrahydro-8H-[1,4]diazepino[5′,6′:4,5]thieno[3,2-f]quinolin-8-one]: the IC50 was found to be 17 nM.

For the compound `C=Cc1ncc(COC2CCOCC2)c(-c2ccc3c(ccc4sc5c(c43)NC[C@@H](C)NC5=O)n2)n1` [Example I-25, (R)-10-methyl-3-(5-(((tetrahydro-2H-pyran-4-yl)oxy)methyl)-2-vinylpyrimidin-4-yl)-9,10,11,12-tetrahydro-8H-[1,4]diazepino[5′,6′:4,5]thieno[3,2-f]quinolin-8-one], the IC50 was found to be 43 nM.
